≈ marks a conversion by molar mass, not a printed value.
How the values were obtained:
S. aureus Newman [1] = test system: S. aureus Newman
S. aureus DSM 20231 [2] = test system: S. aureus DSM 20231
S. pneumoniae D39V [3] = test system: S. pneumoniae D39V
B. subtilis 168 [4] = assay: fitness (endpoint OD595 vs no drug) (fraction); higher = more growth
Procedure, shortened: (§1)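 Plates with 384 wells were inoculated at OD595 0.01 using 30 µl of TSB, LB Lennox or CY, or 55 µl for S. pneumoniae. Incubation was at 37 °C, with OD595 measured every 30 min for 14 h. Fitness is the stationary-phase transition optical density over the robust mean of no-drug control wells, after first-reading background subtraction; it is capped at 1.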

B. subtilis 168 [5] = test system: B. subtilis 168
S. aureus Newman [6] = assay: fitness (endpoint OD595 vs no drug) (fraction); higher = more growth
Procedure, shortened: as §1

S. aureus DSM 20231 [7] = assay: as above
Procedure, shortened: as §1

S. pneumoniae D39V [8] = assay: as above
Procedure, shortened: as §1

S. aureus Newman [9] = assay: Bliss interaction score (quartile over a dose matrix) (fitness difference); higher = more antagonism (negative = synergy)
Procedure, shortened: (§2)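 Quartiles summarise the Bliss score over technical, biological and donor/recipient replicates, where the score is observed minus expected fitness under a product model. Expected fitness uses single-drug values inferred from combination data. Fitness is OD595 at entry into stationary phase over the plate's robust no-drug mean, capped at 1.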

S. aureus DSM 20231 [10] = assay: as above
Procedure, shortened: as §2

S. pneumoniae D39V [11] = assay: as above
Procedure, shortened: as §2

B. subtilis 168 [12] = assay: as above
Procedure, shortened: as §2
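Wherever Bliss interaction score (quartile over a dose matrix) is given: first quartile when negative (synergy) and third quartile when positive (antagonism).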

CO[C@@H]1[C@@H](OC(N)=O)[C@@H](O)[C@H](Oc2ccc3c(O)c(NC(=O)c4ccc(O)c(CC=C(C)C)c4)c(=O)oc3c2C)OC1(C)C [Novobiocin]
Details	MIC [µg/mL]
S. aureus DSM 20231 [2]	0.05 (≈ 0.0816 µM)
S. aureus Newman [1]	0.05 (≈ 0.0816 µM)
S. pneumoniae D39V [3]	2.5 (≈ 4.08 µM)

B. subtilis 168 [4]
Details	fitness
0.0125 µg/mL	0.921
0.025 µg/mL	0.956
0.05 µg/mL	0.986
0.1 µg/mL	0.993
0.2 µg/mL	≥ 1

CO[C@@]12[C@H](COC(N)=O)C3=C(C(=O)C(C)=C(N)C3=O)N1C[C@@H]1N[C@@H]12 [Mitomycin C]
Details	MIC [µg/mL]
B. subtilis 168 [5]	0.25 (≈ 0.748 µM)
S. aureus DSM 20231 [2]	0.069 (≈ 0.206 µM)
S. aureus Newman [1]	0.069 (≈ 0.206 µM)
S. pneumoniae D39V [3]	0.062 (≈ 0.185 µM)

Details	fitness
B. subtilis 168 [4], 0.0312 µg/mL	0.78
B. subtilis 168 [4], 0.0625 µg/mL	0.582
B. subtilis 168 [4], 0.125 µg/mL	0.0244
S. aureus DSM 20231 [7], 0.0156 µg/mL	0.844
S. aureus DSM 20231 [7], 0.0312 µg/mL	0.775
S. aureus DSM 20231 [7], 0.0625 µg/mL	0.59
S. aureus DSM 20231 [7], 0.1562 µg/mL	0.886
S. aureus Newman [6], 0.0156 µg/mL	0.71
S. aureus Newman [6], 0.0312 µg/mL	0.618
S. aureus Newman [6], 0.0625 µg/mL	0.452
S. pneumoniae D39V [8], 0.002 µg/mL	0.823
S. pneumoniae D39V [8], 0.004 µg/mL	0.754
S. pneumoniae D39V [8], 0.008 µg/mL	0.554

CN[C@@H]1[C@H](O)[C@H](NC)[C@H]2O[C@@]3(O)C(=O)C[C@@H](C)O[C@H]3O[C@@H]2[C@H]1O [Spectinomycin]
Details	MIC [µg/mL]
B. subtilis 168 [5]	8 (≈ 24.1 µM)
S. aureus DSM 20231 [2]	16 (≈ 48.1 µM)
S. aureus Newman [1]	16 (≈ 48.1 µM)
S. pneumoniae D39V [3]	64 (≈ 193 µM)

fitness
Details	B. subtilis 168 [4]	S. aureus DSM 20231 [7]	S. aureus Newman [6]	S. pneumoniae D39V [8]
2 µg/mL	0.992	–	–	–
4 µg/mL	0.964	0.966	0.963	0.956
8 µg/mL	0.941	0.961	0.93	0.865
16 µg/mL	–	0.851	0.893	0.702

CN[C@@H]1[C@H](O)[C@H](NC)[C@H]2O[C@@]3(O)C(=O)C[C@@H](C)O[C@H]3O[C@@H]2[C@H]1O [Spectinomycin] + CC1=C\[C@@H](O)CC(=O)Cc2nc(co2)C(=O)N2CCC=C2C(=O)O[C@H](C(C)C)[C@H](C)/C=C/C(=O)NC\C=C\1 [Virginiamycin M1]
Details	Bliss interaction score
B. subtilis 168 [12]	0.042
S. aureus DSM 20231 [10]	-0.0719
S. aureus Newman [9]	0.0692
S. pneumoniae D39V [11]	0.052

fitness
Details	first compound 2 µg/mL	first compound 4 µg/mL	first compound 8 µg/mL	first compound 16 µg/mL
B. subtilis 168 [4], partner 0.0625 µg/mL	0.916	0.979	0.915	–
B. subtilis 168 [4], partner 0.125 µg/mL	0.982	0.941	0.947	–
B. subtilis 168 [4], partner 0.25 µg/mL	≥ 1	0.972	0.875	–
S. aureus DSM 20231 [7], partner 0.0625 µg/mL	–	0.933	0.993	0.809
S. aureus DSM 20231 [7], partner 0.125 µg/mL	–	≥ 1	0.896	0.83
S. aureus DSM 20231 [7], partner 0.25 µg/mL	–	0.961	0.873	0.791
S. aureus Newman [6], partner 0.0625 µg/mL	–	0.936	0.997	0.934
S. aureus Newman [6], partner 0.125 µg/mL	–	0.944	≥ 1	0.961
S. aureus Newman [6], partner 0.25 µg/mL	–	0.942	≥ 1	0.937
S. pneumoniae D39V [8], partner 0.5 µg/mL	–	0.972	0.93	–
S. pneumoniae D39V [8], partner 1 µg/mL	–	0.96	0.916	–
S. pneumoniae D39V [8], partner 2 µg/mL	–	0.931	0.889	0.8

fitness, one replicate
Details	S. aureus DSM 20231 [7]	S. aureus Newman [6]	S. pneumoniae D39V [8]
first compound 4 µg/mL, partner 0.15 µg/mL	–	–	≥ 1
first compound 4 µg/mL, partner 0.3 µg/mL	–	–	0.939
first compound 4 µg/mL, partner 0.5 µg/mL	0.769	0.839	–
first compound 4 µg/mL, partner 1 µg/mL	0.735	0.882	–
first compound 4 µg/mL, partner 2 µg/mL	–	0.769	–
first compound 8 µg/mL, partner 0.15 µg/mL	–	–	0.944
first compound 8 µg/mL, partner 0.3 µg/mL	–	–	0.927
first compound 8 µg/mL, partner 0.5 µg/mL	0.735	0.817	–
first compound 8 µg/mL, partner 1 µg/mL	0.691	0.887	–
first compound 8 µg/mL, partner 2 µg/mL	–	0.787	–
first compound 16 µg/mL, partner 0.15 µg/mL	–	–	0.894
first compound 16 µg/mL, partner 0.3 µg/mL	–	–	0.93
first compound 16 µg/mL, partner 0.5 µg/mL	0.65	0.876	0.857
first compound 16 µg/mL, partner 1 µg/mL	0.704	0.777	0.731
first compound 16 µg/mL, partner 2 µg/mL	–	0.686	–
first compound 32 µg/mL, partner 0.0625 µg/mL	0.643	0.654	–
first compound 32 µg/mL, partner 0.125 µg/mL	0.736	0.629	–
first compound 32 µg/mL, partner 0.25 µg/mL	0.637	0.602	–
first compound 64 µg/mL, partner 0.0625 µg/mL	0.0659	0.0794	–
first compound 64 µg/mL, partner 0.125 µg/mL	0.0603	0.124	–
first compound 64 µg/mL, partner 0.25 µg/mL	0.0858	0.124	–

Source: the supplement of paper PMC10627819
